According to US10214519B2, “Phosphatidylinositol 3-kinase inhibitors” (Gilead Sciences, Inc., priority 2016, dated 2019):

Target: PI3Kβ (Homo sapiens (Human), UniProt P42338)
Experiment: PI3K isoform TR-FRET enzymatic assay (PI3Kβ)
Format: biochemical
Settings: 2× Km ATP, 30 minutes at 25° C.
Method in brief: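 Heterodimeric recombinant PI3Kβ was incubated with compound 30 minutes at 25° C. Product was detected by TR-FRET competition with 10 nM labeled PIP3 for 35 nM Eu-GRP-1 PH domain after EDTA stop. Data were normalized to 1 μM wortmannin and DMSO, and IC50 was taken from a four-parameter fit.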

PI3Kβ, sequence (P42338 whole entry, canonical isoform): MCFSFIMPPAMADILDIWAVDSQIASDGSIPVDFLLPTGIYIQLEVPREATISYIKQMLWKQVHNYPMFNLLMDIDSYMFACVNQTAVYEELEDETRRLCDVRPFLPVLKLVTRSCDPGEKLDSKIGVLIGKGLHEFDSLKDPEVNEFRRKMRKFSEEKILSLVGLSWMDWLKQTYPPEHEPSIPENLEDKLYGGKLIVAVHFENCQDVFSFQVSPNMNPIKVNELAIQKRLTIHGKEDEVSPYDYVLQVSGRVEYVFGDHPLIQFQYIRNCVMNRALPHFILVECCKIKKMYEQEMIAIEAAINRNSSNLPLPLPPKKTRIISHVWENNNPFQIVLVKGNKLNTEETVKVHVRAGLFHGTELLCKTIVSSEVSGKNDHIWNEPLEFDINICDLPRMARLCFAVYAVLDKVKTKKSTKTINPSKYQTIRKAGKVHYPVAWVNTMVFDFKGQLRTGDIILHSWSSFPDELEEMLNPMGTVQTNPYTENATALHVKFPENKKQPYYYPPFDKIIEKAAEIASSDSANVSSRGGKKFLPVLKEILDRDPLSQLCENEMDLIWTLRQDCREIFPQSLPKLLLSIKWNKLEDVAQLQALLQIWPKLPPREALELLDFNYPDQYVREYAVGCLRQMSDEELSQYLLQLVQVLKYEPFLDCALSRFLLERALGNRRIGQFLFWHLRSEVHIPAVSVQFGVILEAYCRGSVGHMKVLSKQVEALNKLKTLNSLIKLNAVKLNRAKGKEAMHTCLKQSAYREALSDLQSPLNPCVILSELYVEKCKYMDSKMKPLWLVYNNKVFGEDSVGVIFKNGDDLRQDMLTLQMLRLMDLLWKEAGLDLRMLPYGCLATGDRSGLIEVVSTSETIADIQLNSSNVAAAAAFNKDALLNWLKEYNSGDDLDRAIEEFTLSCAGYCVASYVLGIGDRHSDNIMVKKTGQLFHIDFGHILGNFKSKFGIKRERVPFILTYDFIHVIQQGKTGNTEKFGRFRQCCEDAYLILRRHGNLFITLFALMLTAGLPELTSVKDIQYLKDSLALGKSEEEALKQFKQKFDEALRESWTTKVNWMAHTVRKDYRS
PI3Kβ, sequence (P27986 whole entry partner, canonical isoform): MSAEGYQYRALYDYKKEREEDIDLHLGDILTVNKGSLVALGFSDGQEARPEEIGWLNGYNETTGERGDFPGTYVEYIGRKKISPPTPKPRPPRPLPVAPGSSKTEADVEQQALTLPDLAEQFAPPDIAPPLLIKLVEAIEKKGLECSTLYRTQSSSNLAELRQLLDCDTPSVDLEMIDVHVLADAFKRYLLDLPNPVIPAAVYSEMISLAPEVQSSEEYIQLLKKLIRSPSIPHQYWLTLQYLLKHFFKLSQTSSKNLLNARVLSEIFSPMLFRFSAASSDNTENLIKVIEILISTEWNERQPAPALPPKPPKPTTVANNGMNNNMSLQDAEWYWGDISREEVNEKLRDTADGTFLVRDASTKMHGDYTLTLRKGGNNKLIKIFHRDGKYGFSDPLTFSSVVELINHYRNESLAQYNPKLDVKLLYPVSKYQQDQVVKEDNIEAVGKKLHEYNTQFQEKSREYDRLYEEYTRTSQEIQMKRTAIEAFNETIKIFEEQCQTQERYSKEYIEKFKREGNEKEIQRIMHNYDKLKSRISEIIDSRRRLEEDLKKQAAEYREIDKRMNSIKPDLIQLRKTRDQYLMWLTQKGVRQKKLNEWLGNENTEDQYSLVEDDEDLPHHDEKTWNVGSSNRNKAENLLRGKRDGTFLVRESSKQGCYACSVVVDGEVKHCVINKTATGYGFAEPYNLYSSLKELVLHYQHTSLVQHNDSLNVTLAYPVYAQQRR

IC50 [nM]	SMILES
630	Cc1nc2c(-c3nnc(N)o3)cc(N3CCOCC3)cc2n1-c1ccnc2cc(F)ccc12 [Example 163, 5-(1-(7-fluoroquinolin-4-yl)-2-methyl-6-morpholino-1H-benzo[d]imidazol-4-yl)-1,3,4-oxadiazol-2-amine]
130	Cc1nc2c(-c3n[nH]c(=S)o3)cc(N3CCOCC3)cc2n1-c1ccnc2cc(F)ccc12 [Example 164, 5-(1-(7-fluoroquinolin-4-yl)-2-methyl-6-morpholino-1H-benzo[d]imidazol-4-yl)-1,3,4-oxadiazole-2(3H)-thione]
720	Cc1nc2c(-c3nnc(N)s3)cc(N3CCOCC3)cc2n1-c1ccnc2cc(F)ccc12 [Example 165, 5-(1-(7-fluoroquinolin-4-yl)-2-methyl-6-morpholino-1H-benzo[d]imidazol-4-yl)-1,3,4-thiadiazol-2-amine]
480	Cc1nc2c(-c3n[nH]c(=O)o3)cc(N3CCOCC3)cc2n1-c1ccnc2cc(F)ccc12 [Example 166, 5-(1-(7-fluoroquinolin-4-yl)-2-methyl-6-morpholino-1H-benzo[d]imidazol-4-yl)-1,3,4-oxadiazol-2(3H)-one]
12	Cc1nc2c(-c3nnc[nH]3)cc(N3CCOCC3)cc2n1-c1cc(-c2cn[nH]c2)nc2ccccc12 [Example 167, 4-(1-(2-(1H-pyrazol-4-yl)quinolin-4-yl)-2-methyl-4-(4H-1,2,4-triazol-3-yl)-1H-benzo[d]imidazol-6-yl)morpholine 2,2,2-trifluoroacetate]
9	Cc1nc2c(-c3nnc[nH]3)cc(N3CCOCC3)cc2n1-c1cc(N2CCNCC2)nc2ccccc12 [Example 168, 4-(2-methyl-1-(2-(piperazin-1-yl)quinolin-4-yl)-4-(4H-1,2,4-triazol-3-yl)-1H-benzo[d]imidazol-6-yl)morpholine 2,2,2-trifluoroacetate]
16	Cc1nnc(-c2cc(N3CCOCC3)cc3c2nc(C)n3-c2cc(N3CCNCC3)nc3ccccc23)[nH]1 [Example 169, 4-(2-methyl-4-(5-methyl-4H-1,2,4-triazol-3-yl)-1-(2-(piperazin-1-yl)quinolin-4-yl)-1H-benzo[d]imidazol-6-yl)morpholine]
7	Cc1nc2c(-c3nnc(Cl)[nH]3)cc(N3CCOCC3)cc2n1-c1ccnc2c(Cl)ccc(F)c12 [Example 170, 4-(4-(5-chloro-4H-1,2,4-triazol-3-yl)-1-(8-chloro-5-fluoroquinolin-4-yl)-2-methyl-1H-benzo[d]imidazol-6-yl)morpholine]
100	Cc1nc2c(-c3nnc(Cl)[nH]3)cc(N3CCOCC3)cc2n1-c1ccnc2c(Cl)c(F)ccc12 [Example 171, 4-(4-(5-chloro-4H-1,2,4-triazol-3-yl)-1-(8-chloro-7-fluoroquinolin-4-yl)-2-methyl-1H-benzo[d]imidazol-6-yl)morpholine]
100	CCc1nc2c(-c3nnc(Cl)[nH]3)cc(N3CCOCC3)cc2n1-c1ccnc2c(Cl)c(F)ccc12 [Example 172, 4-(4-(5-chloro-4H-1,2,4-triazol-3-yl)-1-(8-chloro-7-fluoroquinolin-4-yl)-2-ethyl-1H-benzo[d]imidazol-6-yl)morpholine]
140	Fc1ccc2c(-n3c(C4CC4)nc4c(-c5nnc(Cl)[nH]5)cc(N5CCOCC5)cc43)ccnc2c1Cl [Example 173, 4-(4-(5-chloro-4H-1,2,4-triazol-3-yl)-1-(8-chloro-7-fluoroquinolin-4-yl)-2-cyclopropyl-1H-benzo[d]imidazol-6-yl)morpholine]
13	Fc1ccc(Cl)c2nccc(-n3c(C4CC4)nc4c(-c5nnc(Cl)[nH]5)cc(N5CCOCC5)cc43)c12 [Example 174, 4-(4-(5-chloro-4H-1,2,4-triazol-3-yl)-1-(8-chloro-5-fluoroquinolin-4-yl)-2-cyclopropyl-1H-benzo[d]imidazol-6-yl)morpholine]
10	Cc1nc2c(-c3ncc[nH]3)cc(N3CCOCC3)cc2n1-c1ccnc2c(Cl)cccc12 [Example 175, 4-[3-(8-chloroquinolin-4-yl)-7-(1H-imidazol-2-yl)-2-methylbenzimidazol-5-yl]morpholine]
510	Cc1c[nH]c(-c2cc(N3CCOCC3)cc3c2nc(C)n3-c2ccnc3c(Cl)cccc23)n1 [Example 176, 4-[3-(8-chloroquinolin-4-yl)-2-methyl-7-(4-methyl-1H-imidazol-2-yl)benzimidazol-5-yl]morpholine]
230	Cc1nc[nH]c1-c1cc(N2CCOCC2)cc2c1nc(C)n2-c1ccnc2c(Cl)cccc12 [Example 177, 4-[3-(8-chloroquinolin-4-yl)-2-methyl-7-(4-methyl-1H-imidazol-5-yl)benzimidazol-5-yl]morpholine]
12	Cc1nc2c(-c3nnc(Cl)[nH]3)cc(N3CCOCC3)cc2n1-c1ccnc2c(Cl)cccc12 [Example 178, 4-[3-(8-chloroquinolin-4-yl)-7-(5-chloro-4H-1,2,4-triazol-3-yl)-2-methylbenzimidazol-5-yl]morpholine]
44	CCc1nc2c(-c3nnc(Cl)[nH]3)cc(N3CCOCC3)cc2n1-c1ccnc2c(F)ccc(F)c12 [Example 179, 4-[7-(5-chloro-4H-1,2,4-triazol-3-yl)-3-(5,8-difluoroquinolin-4-yl)-2-ethylbenzimidazol-5-yl]morpholine]
42	Cc1nc2c(-c3nnc(Cl)[nH]3)cc(N3CCOCC3)cc2n1-c1ccnc2c(F)ccc(F)c12 [Example 180, 4-[7-(5-chloro-4H-1,2,4-triazol-3-yl)-3-(5,8-difluoroquinolin-4-yl)-2-methylbenzimidazol-5-yl]morpholine]
210	Fc1ccc(F)c2c(-n3c(C4CC4)nc4c(-c5nnc(Cl)[nH]5)cc(N5CCOCC5)cc43)ccnc12 [Example 181, 4-[7-(5-chloro-4H-1,2,4-triazol-3-yl)-2-cyclopropyl-3-(5,8-difluoroquinolin-4-yl)benzimidazol-5-yl]morpholine]
34	CCCc1nc2c(-c3nnc(Cl)[nH]3)cc(N3CCOCC3)cc2n1-c1ccnc2c(F)ccc(F)c12 [Example 182, 4-[7-(5-chloro-4H-1,2,4-triazol-3-yl)-3-(5,8-difluoroquinolin-4-yl)-2-propylbenzimidazol-5-yl]morpholine]
170	Cc1nc2c(-c3cn[nH]c3)cc(N3CCOCC3)cc2n1-c1ccnc2c(Cl)cccc12 [Example 183, 4-(1-(8-chloroquinolin-4-yl)-2-methyl-4-(1H-pyrazol-4-yl)-1H-benzo[d]imidazol-6-yl)morpholine]
120	Clc1cccc2c(-n3c(C4CCCO4)nc4c(-c5ccccc5)cc(N5CCOCC5)cc43)ccnc12 (stereo not shown) [Example 198]
610	Clc1cccc2c(-n3c(C4CCCO4)nc4c(-c5cccnc5)cc(N5CCOCC5)cc43)ccnc12 (stereo not shown) [Example 199]
9	Cc1nc2c(-c3ncco3)cc(N3CCOCC3)cc2n1-c1ccnc2c(F)cccc12 [Example 200, 4-(1-(8-fluoroquinolin-4-yl)-2-methyl-4-(oxazol-2-yl)-1H-benzo[d]imidazol-6-yl)morpholine]
19	Cc1ncc(-c2cc(N3CCOCC3)cc3c2nc(C)n3-c2ccnc3c(Cl)cccc23)[nH]1 [Example 201, 4-[3-(8-chloroquinolin-4-yl)-2-methyl-7-(2-methyl-1H-imidazol-5-yl)benzimidazol-5-yl]morpholine]
